Experimental data as given in patent US10815257B2, “Polymorph of sodium neridronate and preparation process thereof” (ABIOGEN PHARMA S.P.A., priority 2018, dated 2020).

Tests used:
Assay type in all cases: physicochemical
[1] = Thermodynamic solubility test; conditions: buffer solution pH 7.4, 37° C., stirring about 500 rpm
Method: For this purpose, a dissolution test was carried out in a buffer solution at pH 7.4. The thermodynamic solubility evaluation was performed leaving the sample in the buffer solution, under magnetic stirring at about 500 rpm, for a period of 24 hours, at a temperature of 37° C.

[2] = Stability study at 40° C. and 75% RH monitored by XRD; conditions: for stability of crystalline form over time (XRD): eight weeks observation
Method: The stability study was carried out on samples of crystalline polymorphic forms B, E, and the hemihydrate form F of sodium neridronate, stored in an environment characterized by 75% relative humidity (RH) and a temperature of 40° C.
The observation of the sample stability lasted for a period of eight weeks, during which once a week, […], an aliquot was taken from each sample and subjected to XRD analysis to observe any possible crystalline changes of the various samples over time.

[3] = Hygroscopicity study by Dynamic Vapor Sorption (DVS); conditions: 25° C.; for mass variation (humidity absorption, DVS): 90% relative humidity (RH); for behavior in DVS hygroscopicity study: RH 0 to 90%
Method: The Hygroscopicity study was carried out on samples of polymorphic crystalline forms F, B and E of sodium neridronate by measuring the humidity absorption kinetics, in a range of relative humidity (RH %) comprised between 0 and 90%, at the temperature of 25° C.

SMILES | thermodynamic solubility ([1]; 24 hours) [mg/mL] | onset of conversion into crystalline hemihydrate form F (XRD) [2] | extent of conversion into form F at the end of the observation period (XRD) ([2]; eight weeks) | stability of crystalline form over time (XRD) [2] | mass variation (humidity absorption, DVS) [3] | behavior in DVS hygroscopicity study [3] | extent of conversion into form F after seven weeks (XRD) ([2]; seven weeks) | solubility thermodynamic at 24 h ([1]; buffer solution, 37 °C, pH 7.4, aqueous buffer, thermodynamic from solid) [mg/mL]
NCCCCCC(O)(P(=O)([O-])O)P(=O)(O)O.[Na+] [form B, sodium neridronate] | 92.97 | begin to convert into the crystalline hemihydrate form F already after a week | only partially converted | not stable over time | about 5% | hydrophilic behavior | – | –
NCCCCCC(O)(P(=O)([O-])O)P(=O)(O)O.[Na+] [form E, sodium neridronate] | – | begin to convert into the crystalline hemihydrate form F already after a week | – | not stable over time | about 1% | hydrophilic behavior | completely converted into the crystalline hemihydrate form F | –
NCCCCCC(O)(P(=O)([O-])O)P(=O)(O)O.[Na+] [form F, sodium neridronate] | – | – | – | stable even after eight weeks conditioning | without any appreciable mass variation | hydrophobic behavior | – | 93.7
